Test results taken from patent US20060194815A1, “Methods and compositions for modulating serum cortisol levels” (priority 2003, published 2006).

Tested on: Y1 mouse adrenal tumor cells
Test: dbcAMP-induced 20á-hydroxyprogesterone synthesis in Y1 cells (RIA)
Type: cell-based
Experimental: Culture media were then changed and cells were stimulated with 1 mM dbcAMP and the treatment for 24 to 48 hours. […] The synthesis of 20-OH progesterone and progesterone in Y1 and MA-10 cell media respectively were measured by RIA (Brown et al., 1992). H295R human adrenal tumor cells were seeded in 48-well plates at 10^5 cells/well and incubated for 24 hours. […] At the end of the incubation time period, cells were treated with 1 mM dbcAMP for 48 hours. Cortisol levels in the media were determined by radioimmunoassay as previously described (Amri et al., 1996).

Q: How did the “efficacy on Y1 adrenocortical cells across concentrations” value (1, 10 and 100 iM) turn out when CC1CN(C(=O)C(Cc2c[nH]c3ccccc23)NC(=O)c2ccc([N+](=O)[O-])cc2)CCN1C(=O)C1CC1 (stereo not drawn) [SP010, N-[2-(4-cyclopropanecarbonyl-3-methyl-piperazin-1-yl)-1-(1H-indol-3-yl-methyl)-2-oxo-ethyl]-4-nitro-benzamide] was run?
A: maintained the same efficacy

Q: What about the “dbcAMP-induced 20á-hydroxyprogesterone production” value (Y1 cells, 1 mM dbcAMP, increasing concentrations) of the same compound?
A: decreased in a dose-dependent manner

Q: What about the “potency compared with procaine on cAMP-corticosteroid formation” value (even at a concentration as low as 1 μM) of the same compound?
A: as potent as procaine
